Data reported in paper PMC6394990, “Detailed characterization of the solution kinetics and thermodynamics of biotin, biocytin and HABA binding to avidin and streptavidin” (PLoS ONE, 2019).
Values joined by “and” are separate entries in the source; they are usually repeats but may differ in a detail not shown here. Identical values can stand only once.

Assays:
Format in all cases: physicochemical
[1] = Absorbance and fluorescence emission spectra, unbound probe; conditions: unbound dye
Description: (§1) The lifetimes (τ), steady state anisotropies (rss), time-resolved anisotropies (rt) and quantum yields (QY) of the complexes (at 20 ± 0.1°C and pH 8) were collected with a dye-labeled B7 probe concentration of 20–40 nM and 1040–2080 nM of either protein (AV or SAV) to ensure that only one binding site in the tetramer was filled with a ligand (AB1 filling model).
(§2) The QY values were obtained by using a reference fluorophore of known quantum yield and were calculated according to Parker and Rees, where the reference dye was fluorescein in 0.1N sodium hydroxide solution [46]. The emission fluorescence scans were collected from 480 nm to 700 nm with the excitation light set at 460 nm provided by the xenon arc lamp described above. These measurements were made on the AB1 complexes at high protein concentration.
(§3) Supplementary file pone.0204194.s001.docx: S1 Fig Absorbance spectra of dye-labeled B7 probes and respective complexes with AV and SAV. […] The spectra are normalized to the calculated molar absorptivies. […] The labeled probes and protein concentrations were 1 μM and 10 μM, respectively. (DOCX) Click here for additional data file.
(§4) Supplementary file pone.0204194.s002.docx: S2 Fig Fluorescence emission spectra of dye-labeled B7 and respective complexes with AV and SAV. […] The probe and protein concentrations were 20 nM and 1040 nM (AB1 filling model), respectively. (DOCX) Click here for additional data file.

[2] = target: T1, avidin (AV) (Gallus gallus, UniProt P02701); assay: Absorbance and fluorescence emission spectra, AV complex; conditions: for Maximum Absorbance / Maximum Emission: AV complex (AB1); for Abs (nm) / Emission (nm): complex with AV
T1 construct: purchased Calbiochem (La Jolla, CA)
T1 sequence (P02701 25-152): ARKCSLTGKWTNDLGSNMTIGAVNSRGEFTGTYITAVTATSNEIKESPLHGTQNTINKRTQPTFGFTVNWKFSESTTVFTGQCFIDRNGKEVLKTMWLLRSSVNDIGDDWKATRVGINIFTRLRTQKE
Description: as §1, §2, §3, §4

[3] = target: T1, avidin (AV); assay: Fluorescence lifetimes, AV complex; conditions: for Lifetime τ: AV complex (AB1), 20°C, pH 8; for t (1), fluorescence lifetime: complex with AV, t for BFl and BcO, average lifetime for B-DNAds*Fl, in ns
Description: as §1
(§5) The lifetimes were collected in a FluoTime100 fluorescence spectrometer (PicoQuant, GmbH, Berlin, Germany) with the excitation light source provided by a picosecond pulsed diode laser (PicoQuant, GmbH, Berlin, Germany) at 470 nm and 20 MHz. The emission was collected at 520 nm through a non-fluorescing 520 nm interference filter (Oriel Corp., Stratford, CT) followed by a liquid filter of 1cm path length containing 24 mM acetate buffered dichromate at pH 4, between the sample and detector to eliminate traces of excitation light. The fluorescence decays were fit by a nonlinear least-squares minimization based on the Marquardt algorithm embedded in the Fluofit software (PicoQuant GmbH). Twenty-eight decays were collected per sample, the decays were grouped in four sets, consisting of seven sample decays and one Instrument Response Function, IRF, for deconvolution proposes. The decay sets were globally fitted to mono- or bi-exponential decay models that were discriminated using the statistical parameter χ^2. The rt data were acquired with the fluorimeter described above equipped with a polarizer and an analyzer to acquire the parallel VV(t) and perpendicular VH(t) decays. The PicoQuant G factor was calculated according to: G = ∫HV(t)dt/∫HH(t)dt, where HV(t) and HH(t) were the decays collected with the emission polarizer selecting vertical and horizontal E-vector passing orientations, respectively, and the excitation polarizer set at horizontally position.

[4] = target: T2, streptavidin (SAV) (Streptomyces avidinii, UniProt P22629); assay: Quantum yields (QY), SAV complex; conditions: for dQY-SAV: fractional change of QY, SAV complex against dye
T2 construct: purchased Sigma Aldrich (St. Louis, MO)
T2 sequence (P22629 25-183): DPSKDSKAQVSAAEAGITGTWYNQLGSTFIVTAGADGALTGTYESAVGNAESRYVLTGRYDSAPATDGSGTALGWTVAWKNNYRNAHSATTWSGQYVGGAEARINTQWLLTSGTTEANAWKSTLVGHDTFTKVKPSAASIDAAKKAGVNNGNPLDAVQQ
Description: as §1, §2

[5] = target: T1, avidin (AV); assay: Steady-state anisotropy (rss), AV complex; conditions: for Steady State Anisotropy rss: AV complex (AB1), 20°C; for AV-increment (%): increase of rss against unbound; for rss, + AV: steady-state anisotropy
Description: as §1
The rss measurements were collected using the Giblin-Parkhurst modification of the Wampler-Desa method as described previously. The fluorescence signal was detected in a model A-1010 Alphascan fluorimeter (Photon Technologies, Inc., Birmingham, NJ) equipped with an R928 PMT (Hamamatsu, Bridgewater, NJ). The excitation was provided by an Ar^+ ion laser (Coherent Innova 70–4 Argon, Santa Clara, CA) at 488 nm and 5–10 mW of power incident on the sample. A photoelastic modulator (PEM-80; HINDS International, Inc., Portland, OR) was placed between the laser source and the sample compartment with a retardation level of 1.22π, and the PEM stress axis orientated 45° with respect to the E vector of the laser beam. Two signals were acquired with the PEM alternating between “on” and “off” positions for 10 seconds and the data fitted to a least squared straight line to minimize noise. A minimum of six of these independent measurements were averaged to acquire the rss values. The fluorimeter G factor was determined using a film polarizer and analyzer with an excitation at 488 nm provided by a xenon arc lamp (model A1010, Photon Technologies Inc, Princeton, NJ). The dissociation reactions of dye-labeled B7 and protein complexes were monitored by fluorescence changes and were also collected in the fluorimeter described above.

[6] = Time-resolved anisotropy, cone angle, unbound probe; conditions: unbound dye
Description: as §5, with “Twenty-eight decays were collected per sample, the decays were grouped in four sets, consisting of seven sample decays and one Instrument Response Function, IRF, for deconvolution proposes. The decay sets were globally fitted to mono- or bi-exponential decay models that were discriminated using the statistical parameter χ^2. The rt data were acquired with the fluorimeter described above equipped with a polarizer and an analyzer to acquire the parallel VV(t) and perpendicular VH(t) decays.” left out, “position. […]” for “position.”
In a simple model, the transition moment is assumed to wobble within a cone of semi-apical angle Ω [59], where the cone axis is normal to the surface of a sphere that corresponds to the macromolecule. The angle Ω is calculated from Eq 14.

O=C(CCCC[C@@H]1SC[C@@H]2NC(=O)N[C@@H]21)NCCNC(=O)c1ccc(-c2c3ccc(=O)cc-3oc3cc(O)ccc23)c(C(=O)O)c1 [BFl, Biotin-4-fluorescein]
Abs (nm) [1]: 494 nm
Emission (nm) [1]: 530 nm
Maximum Absorbance [2]: 498 nm
Maximum Emission [2]: 528 nm
Abs (nm) [2]: 498 nm
Emission (nm) [2]: 528 nm
Lifetime τ [3]: 4.22 ± 0.01 ns
t (1), fluorescence lifetime [3]: 4.22 ± 0.01
488, correction, absR/abs ([4]; complex with SAV): 1.708
QY ([4]; complex with SAV): 0.11 and 0.11 ± 0.01
QY multiplied by the 488 correction absR/abs ([4]; complex with SAV): 0.1879
dQY-SAV [4]: -0.7885
Steady State Anisotropy rss [5]: 0.180 ± 0.003
AV-increment (%) [5]: 757.1%
rss, + AV [5]: 0.18
W [6]: 90 °

NC(CCCCNC(=O)CCCC[C@@H]1SC[C@@H]2NC(=O)N[C@@H]21)C(=O)NCCCCCNC(=O)c1ccc(-c2c3cc(F)c(=O)cc-3oc3cc(O)c(F)cc23)c(C(=O)O)c1 (stereo partly shown) [BcO, Oregon green 488 Biocytin]
Abs (nm) [1]: 495 nm
Emission (nm) [1]: 523 nm
Maximum Absorbance [2]: 497 nm
Maximum Emission [2]: 524 nm
Abs (nm) [2]: 497 nm
Emission (nm) [2]: 524 nm
Lifetime τ [3]: 4.35 ± 0.01 ns
t (1), fluorescence lifetime [3]: 4.35 ± 0.01
Quantum Yield QY ([4]; SAV complex (AB1)): 0.21 ± 0.01
QY ([4]; complex with SAV): 0.21 ± 0.01 and 0.21
dQY-SAV [4]: -0.7692
Steady State Anisotropy rss [5]: 0.187 ± 0.009
AV-increment (%) [5]: 713.0%
rss, + AV [5]: 0.187
W [6]: 90 °
